According to ChEMBL document CHEMBL1201862, “PubChem BioAssay data set” (2004):
Activity calls are given as the source filed them.

What was measured:
[1] = growth suppression of PTEN-null colon cells, dose response, cell-based, HCT116 PTEN knockout (AID 1047); assay type: functional;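 note: HCT116 colon tumor cells with PTEN knocked out; cells exposed to compound for 60 hours before readout; potency for loss of cell viability measured by luminescence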
[2] = growth suppression of beta-catenin-knockout colon cells, dose response, cell-based, HCT116, human colon tumor (AID 1045); assay type: functional;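 note: HCT116 colon tumor cells with beta catenin knocked out; cells exposed to compound for 60 hours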
[3] = target: T1, Heat shock factor protein 1 (Mus musculus, UniProt P38532); assay: HSF1 potentiators in luciferase reporter cells, confirmation, cell-based, NIH3T3, luminescence, dose retest (AID 435004); assay type: functional;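 note: stress induced by proteasome inhibitor MG132 added 30 min after compound; luciferase reporter driven by HSF1 response element in NIH3T3 cells; actives raise luminescence as potentiators of the MG132 stress response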
T1 sequence (P38532 whole entry): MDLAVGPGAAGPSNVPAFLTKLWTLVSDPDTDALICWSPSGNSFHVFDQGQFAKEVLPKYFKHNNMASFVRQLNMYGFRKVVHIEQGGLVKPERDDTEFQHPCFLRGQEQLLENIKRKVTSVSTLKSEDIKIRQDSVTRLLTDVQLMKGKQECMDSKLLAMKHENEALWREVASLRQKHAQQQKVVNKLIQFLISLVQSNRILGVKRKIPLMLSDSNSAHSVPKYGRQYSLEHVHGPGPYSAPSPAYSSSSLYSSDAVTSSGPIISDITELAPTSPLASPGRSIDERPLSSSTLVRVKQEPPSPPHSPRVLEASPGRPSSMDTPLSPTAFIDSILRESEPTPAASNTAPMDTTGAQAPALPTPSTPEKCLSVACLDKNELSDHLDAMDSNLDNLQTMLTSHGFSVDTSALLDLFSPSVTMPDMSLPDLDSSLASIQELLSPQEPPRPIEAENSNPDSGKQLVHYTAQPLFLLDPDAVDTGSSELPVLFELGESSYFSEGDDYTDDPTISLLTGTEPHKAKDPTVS

[4] = cytotoxicity in HEK-293T cells, dose response, cytotoxicity control for BCR NF-kB inhibitor project, luminescence, B-cell screen hits (AID 489021); assay type: functional, cell-based;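 note: HEK-293T cells carrying an NF-kB luciferase reporter; cells exposed to compound for about 14 hours before viability readout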
[5] = target: Melanin-concentrating hormone receptor 1 (Homo sapiens, UniProt Q99705); assay: Late-stage fluorescence-based counterscreen for antagonists of the G-protein coupled receptor 7 (GPR7): cell-based dose response assay to identify antagonists of the melanin-concentrating hormone receptor 1 (MCHR1). [Related pubchem assays (depositor defined):AID1861, AID1880, AID1952, AID2148, AID2251, AID2257, AID485339]; assay type: functional;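 note: stimulated with 30 nM MCH peptide agonist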
Chain of Melanin-concentrating hormone receptor 1 (Q99705 whole entry): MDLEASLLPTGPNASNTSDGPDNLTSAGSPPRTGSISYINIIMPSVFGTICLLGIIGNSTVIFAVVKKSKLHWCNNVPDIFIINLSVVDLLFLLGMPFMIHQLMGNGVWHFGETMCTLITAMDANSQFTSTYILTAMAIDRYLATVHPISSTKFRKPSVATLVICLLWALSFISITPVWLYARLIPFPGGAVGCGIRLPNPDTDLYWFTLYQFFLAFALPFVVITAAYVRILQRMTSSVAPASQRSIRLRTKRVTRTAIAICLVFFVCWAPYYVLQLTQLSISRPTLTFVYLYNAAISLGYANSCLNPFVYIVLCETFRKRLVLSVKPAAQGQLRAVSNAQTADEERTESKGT

[6] = target: Beta-galactosidase (Escherichia coli, UniProt Q8VNN2); assay: beta-galactosidase enzyme inhibitors and activators, dose response, artefact control for CCR6 antagonist project, biochemical, E. coli enzyme, set 3 (AID 504712); assay type: functional
Chain of Beta-galactosidase (Q8VNN2 whole entry): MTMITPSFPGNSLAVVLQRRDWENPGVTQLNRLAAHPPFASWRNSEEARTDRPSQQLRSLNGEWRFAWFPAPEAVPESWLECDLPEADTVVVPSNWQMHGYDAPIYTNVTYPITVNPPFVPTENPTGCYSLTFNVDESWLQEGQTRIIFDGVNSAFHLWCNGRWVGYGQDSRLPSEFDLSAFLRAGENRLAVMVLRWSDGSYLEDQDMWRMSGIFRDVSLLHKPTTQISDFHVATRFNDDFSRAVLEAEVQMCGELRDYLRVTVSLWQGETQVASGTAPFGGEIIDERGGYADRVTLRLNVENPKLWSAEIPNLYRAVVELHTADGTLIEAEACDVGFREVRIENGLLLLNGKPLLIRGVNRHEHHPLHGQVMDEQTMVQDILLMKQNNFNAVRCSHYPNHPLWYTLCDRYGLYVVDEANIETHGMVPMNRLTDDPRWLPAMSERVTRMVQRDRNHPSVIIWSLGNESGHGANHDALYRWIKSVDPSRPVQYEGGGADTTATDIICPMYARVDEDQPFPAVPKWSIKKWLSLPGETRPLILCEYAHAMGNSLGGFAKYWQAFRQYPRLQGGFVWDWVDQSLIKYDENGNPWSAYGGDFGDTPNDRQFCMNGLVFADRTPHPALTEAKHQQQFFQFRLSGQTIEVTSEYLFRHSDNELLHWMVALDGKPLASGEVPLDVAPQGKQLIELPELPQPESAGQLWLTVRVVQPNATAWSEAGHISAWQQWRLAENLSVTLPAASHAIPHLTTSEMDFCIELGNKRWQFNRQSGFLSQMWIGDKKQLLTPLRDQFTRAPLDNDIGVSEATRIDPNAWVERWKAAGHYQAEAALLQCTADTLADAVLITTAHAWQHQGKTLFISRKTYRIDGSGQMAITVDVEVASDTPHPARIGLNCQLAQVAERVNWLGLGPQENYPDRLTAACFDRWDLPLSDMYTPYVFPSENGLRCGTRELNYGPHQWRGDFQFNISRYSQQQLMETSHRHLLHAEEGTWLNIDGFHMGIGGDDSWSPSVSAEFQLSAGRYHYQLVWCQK

[7] = test system: Streptococcus sp. 'group A'; assay: growth inhibition of control SK(-) GAS strain, dose response, counter-screen for streptokinase expression inhibitor project, luminescence, kanamycin, BacTiterGlo, confirmation (AID 1900); assay type: functional, organism-based
[8] = target: T2, Streptokinase A (Streptococcus pyogenes serotype M1, UniProt P10520); assay: S. pyogenes streptokinase expression inhibitors, potency, dose response, plasminogen activation absorbance, OD405 (AID 1914); assay type: functional, Streptococcus pyogenes M1 GAS;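 note: secreted streptokinase activity via plasminogen activation per viability signal from cell pellet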
T2 sequence (P10520 whole entry): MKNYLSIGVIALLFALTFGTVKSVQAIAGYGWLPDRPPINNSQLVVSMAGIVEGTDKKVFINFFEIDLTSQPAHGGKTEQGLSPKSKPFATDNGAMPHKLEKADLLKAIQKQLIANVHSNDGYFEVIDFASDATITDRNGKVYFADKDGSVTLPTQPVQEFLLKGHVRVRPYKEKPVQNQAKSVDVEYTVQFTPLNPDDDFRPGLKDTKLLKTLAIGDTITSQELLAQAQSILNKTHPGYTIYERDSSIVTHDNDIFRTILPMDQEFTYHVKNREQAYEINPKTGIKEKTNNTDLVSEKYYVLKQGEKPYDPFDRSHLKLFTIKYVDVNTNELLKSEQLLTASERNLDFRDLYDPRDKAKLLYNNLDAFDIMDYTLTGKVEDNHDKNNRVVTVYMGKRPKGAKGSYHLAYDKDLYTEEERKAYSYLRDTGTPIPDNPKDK

[9] = target: NS3 (Hepatitis C virus, UniProt A3EZJ3); assay: PubChem AID 2173; parameters: species or system Hepacivirus hominis
Chain of NS3 (A3EZJ3 whole entry): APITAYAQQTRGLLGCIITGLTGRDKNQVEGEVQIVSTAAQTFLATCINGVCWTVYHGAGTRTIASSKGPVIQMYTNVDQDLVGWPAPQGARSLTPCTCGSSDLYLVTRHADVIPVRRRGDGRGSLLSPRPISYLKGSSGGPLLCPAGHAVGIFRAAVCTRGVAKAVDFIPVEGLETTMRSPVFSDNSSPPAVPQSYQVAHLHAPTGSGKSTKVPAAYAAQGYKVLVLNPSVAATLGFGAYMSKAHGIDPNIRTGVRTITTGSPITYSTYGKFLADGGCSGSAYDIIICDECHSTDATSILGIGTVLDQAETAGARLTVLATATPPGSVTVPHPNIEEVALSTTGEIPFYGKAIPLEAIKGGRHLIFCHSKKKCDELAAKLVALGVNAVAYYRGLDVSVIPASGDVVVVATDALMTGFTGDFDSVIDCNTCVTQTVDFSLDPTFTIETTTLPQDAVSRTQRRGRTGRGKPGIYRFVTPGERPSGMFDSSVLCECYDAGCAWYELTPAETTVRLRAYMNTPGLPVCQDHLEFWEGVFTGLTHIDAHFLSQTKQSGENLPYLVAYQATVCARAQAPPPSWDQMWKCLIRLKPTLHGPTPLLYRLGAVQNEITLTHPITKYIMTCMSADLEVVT

[10] = test system: Streptococcus; assay: Group A Streptococcus viability loss, dose response, counter-screen for streptokinase expression inhibitor project, luminescence, BacTiterGlo (AID 1915); assay type: functional, organism-based;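 note: potency for reduction of bacterial viability or growth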
[11] = target: Nonstructural protein 1 (Influenza A virus, UniProt Q194T2); assay type: functional, Influenza A virus (A/California/07/2009(H1N1))
Chain of Nonstructural protein 1 (Q194T2 whole entry): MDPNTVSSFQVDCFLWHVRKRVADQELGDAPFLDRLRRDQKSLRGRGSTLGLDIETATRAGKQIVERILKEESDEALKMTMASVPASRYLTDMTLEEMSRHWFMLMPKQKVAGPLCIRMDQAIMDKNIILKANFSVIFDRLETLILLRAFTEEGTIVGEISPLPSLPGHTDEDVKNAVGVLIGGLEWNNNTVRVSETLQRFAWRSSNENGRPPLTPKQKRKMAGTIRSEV

[12] = target: Serine/threonine-protein phosphatase PP1-alpha catalytic subunit (Homo sapiens, UniProt P62136); assay: PP1 phosphatase inhibitors, dose response, biochemical, fluorescence (AID 2403);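 note: phosphatase turnover of OMFP into fluorescent 3-O-methylfluorescein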
Chain of Serine/threonine-protein phosphatase PP1-alpha catalytic subunit (P62136 whole entry): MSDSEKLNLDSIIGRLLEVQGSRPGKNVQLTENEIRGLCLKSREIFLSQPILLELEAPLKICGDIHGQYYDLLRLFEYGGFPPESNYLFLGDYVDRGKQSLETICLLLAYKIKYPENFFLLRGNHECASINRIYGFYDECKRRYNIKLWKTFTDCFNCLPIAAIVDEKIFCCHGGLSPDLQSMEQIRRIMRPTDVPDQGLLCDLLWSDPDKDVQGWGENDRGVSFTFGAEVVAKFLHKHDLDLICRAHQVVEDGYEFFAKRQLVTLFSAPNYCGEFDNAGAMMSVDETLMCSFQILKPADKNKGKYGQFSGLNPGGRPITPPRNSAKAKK

[13] = target: T3, Serine/threonine-protein phosphatase (Homo sapiens, UniProt Q9BPW0); assay: Counterscreen for inhibitors of PP1: fluorescence-based biochemical high throughput dose response assay to identify inhibitors of Protein Phosphatase 5 (PP5). [Related pubchem assays: 2034 (Summary (PP5 inhibitors)), 1987 (PP5 inhibitors in singlate), 2235 (PP1 inhibitors in singlate)]
T3 sequence (Q9BPW0 whole entry): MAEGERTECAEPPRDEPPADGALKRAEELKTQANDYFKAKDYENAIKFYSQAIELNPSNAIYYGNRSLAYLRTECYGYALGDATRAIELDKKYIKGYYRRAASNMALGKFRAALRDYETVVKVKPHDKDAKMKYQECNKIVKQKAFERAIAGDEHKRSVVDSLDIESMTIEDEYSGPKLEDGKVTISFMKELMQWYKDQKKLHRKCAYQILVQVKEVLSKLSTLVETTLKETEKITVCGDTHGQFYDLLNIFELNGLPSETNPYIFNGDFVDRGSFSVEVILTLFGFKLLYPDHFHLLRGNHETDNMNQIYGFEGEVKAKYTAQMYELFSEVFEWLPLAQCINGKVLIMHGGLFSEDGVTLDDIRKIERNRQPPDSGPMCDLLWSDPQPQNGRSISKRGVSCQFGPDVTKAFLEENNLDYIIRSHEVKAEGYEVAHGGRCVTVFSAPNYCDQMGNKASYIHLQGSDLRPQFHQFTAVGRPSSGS

## COc1ccc2[nH]c(Sc3c([N+](=O)[O-])nc(C)n3Cc3ccccc3)nc2c1
[1]
  EC50: 9.43 µM (active)
[2]
  EC50: 8.94 µM (active)
[3]
  EC50: 8.34 µM (active)
[4]
  IC50: > 80 µM (inactive)

## Cc1ccccc1CN1CCCCC1C(=O)N1CCN(c2ccc([N+](=O)[O-])cc2)CC1 (stereo not drawn)
[5]
  IC50: 5.8 µM (active)

## COCC/N=c1\scc(-c2ccc3c(c2)NC(=O)CO3)n1/N=C(\C)c1ccc(O)cc1
[6]
  IC50: > 66.6 µM (inactive)

## COc1ccc(/C=N\NC(=O)c2cc(O)c(O)c(O)c2)cc1COc1ccc(C(=O)OCC(C)C)cc1
[7]
  EC50: 6.26 µM (active)
[8]
  EC50: > 150 µM (not active)
[9]
  IC50: 4.44 µM (active)
[10]
  EC50: 6.69 µM (active)
[11]
  IC50: 78.6 µM (active)

## Clc1ccc(-n2nnnc2-c2cnc(-c3ccccn3)nc2-c2cccs2)cc1
[12]
  IC50: 4.64 µM (active)
[13]
  IC50: > 67 µM (not active)
